In patent US9999622B2, “Pyrazolothiazole compound and medicine comprising same” (NIPPON SHINYAKU CO., LTD., priority 2014, dated 2018):
Structures can show the parent of a compound that is named as a salt.

What was measured:
JAK1 = molecular target: T1, JAK1 (Homo sapiens, UniProt P23458); experiment: JAK tyrosine kinase inhibitory activity in the presence of 1 mM ATP (ELISA), JAK1; type: biochemical
T1 construct: purchased Carna Biosciences, Inc
In short: (§1)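 Recombinant kinase (7.5 nM JAK1; 0.75 nM JAK2, JAK3 working dilutions) reacted 1 h at 30 °C with 1 mM ATP in Tris-HCl pH 7.5, Tween-20, DTT, on streptavidin plates. Phosphotyrosine detected by HRP anti-pTyr antibody ELISA, TMB absorbance at 450 nm; duplicate wells, DMSO as negative control.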

JAK2 = molecular target: T2, JAK2 (Homo sapiens, UniProt O60674); experiment: JAK tyrosine kinase inhibitory activity in the presence of 1 mM ATP (ELISA), JAK2; type: biochemical
T2 construct: purchased Carna Biosciences, Inc
In short: as §1

JAK3 = molecular target: T3, JAK3 (Homo sapiens, UniProt P52333); experiment: JAK tyrosine kinase inhibitory activity in the presence of 1 mM ATP (ELISA), JAK3; type: biochemical
T3 construct: purchased Carna Biosciences, Inc
T3 sequence (P52333 1-1124): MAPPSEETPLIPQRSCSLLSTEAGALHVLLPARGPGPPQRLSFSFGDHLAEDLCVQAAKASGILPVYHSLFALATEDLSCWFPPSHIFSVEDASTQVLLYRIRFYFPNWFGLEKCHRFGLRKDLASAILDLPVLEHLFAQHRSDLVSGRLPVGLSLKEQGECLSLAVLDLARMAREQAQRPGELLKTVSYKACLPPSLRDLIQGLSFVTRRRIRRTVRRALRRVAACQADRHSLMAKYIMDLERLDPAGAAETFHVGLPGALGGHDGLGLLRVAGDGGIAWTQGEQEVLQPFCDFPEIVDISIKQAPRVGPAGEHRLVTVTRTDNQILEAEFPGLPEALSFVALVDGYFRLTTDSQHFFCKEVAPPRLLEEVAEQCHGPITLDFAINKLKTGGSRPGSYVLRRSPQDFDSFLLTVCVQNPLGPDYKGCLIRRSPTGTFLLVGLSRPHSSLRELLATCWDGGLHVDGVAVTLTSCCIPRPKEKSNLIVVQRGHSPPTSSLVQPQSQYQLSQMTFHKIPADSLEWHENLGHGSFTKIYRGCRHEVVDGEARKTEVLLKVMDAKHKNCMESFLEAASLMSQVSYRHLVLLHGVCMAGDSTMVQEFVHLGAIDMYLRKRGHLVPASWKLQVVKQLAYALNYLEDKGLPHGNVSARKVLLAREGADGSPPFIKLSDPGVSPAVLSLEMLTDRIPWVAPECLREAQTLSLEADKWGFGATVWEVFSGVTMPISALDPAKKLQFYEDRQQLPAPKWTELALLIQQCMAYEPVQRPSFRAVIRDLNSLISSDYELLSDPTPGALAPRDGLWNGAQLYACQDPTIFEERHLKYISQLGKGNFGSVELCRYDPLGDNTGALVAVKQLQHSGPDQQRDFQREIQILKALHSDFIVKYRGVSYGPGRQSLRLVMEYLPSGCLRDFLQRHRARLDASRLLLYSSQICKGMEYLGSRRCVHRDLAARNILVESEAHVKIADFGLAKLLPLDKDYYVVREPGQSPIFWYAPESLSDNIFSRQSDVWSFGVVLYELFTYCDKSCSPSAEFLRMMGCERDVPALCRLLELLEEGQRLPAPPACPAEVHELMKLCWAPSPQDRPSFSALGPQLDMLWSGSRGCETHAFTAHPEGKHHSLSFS
In short: as §1

[1] = tested on: Aspergillus-induced airway inflammation model; experiment: Inhibitory effect on Aspergillus-induced airway inflammation model; type: in vivo; conditions: mice; for inhibition in vivo at 10000 µg/mL, 100 mg/kg: Mus musculus, Eosinophil, po, 240 h, 10 mg/mL suspension at 10 mL/kg twice a day Day 0 to Day 9, BALF collected at Day 10, read-out: Inhibition rate on count of invasive eosinophil in BALF (%)
Experimental: Aspergillus fumigatus extracts (Greer laboratories, Inc.) were adjusted to 400 μg/mL with PBS. The Aspergillus fumigatus solutions thus prepared were administered to mice as nasal drops (50 μL) on Day 0, Day 1, Day 7 and Day 8. The nasal drop was administered one hour after the administration of test compounds in the morning. The test compound was administered twice a day in the morning and evening of Day 0 to Day 9. The test compound was suspended in 0.5% methylcellulose at 10 mg/mL, and orally administered at the dosage of 10 mL/kg. The bronchoalveolar lavage fluid (BALF) was collected at Day 10, and the total white blood cell count in BALF was measured using Celltac (NIHON KOHDEN). The ratio of eosinophil in total white blood cell was calculated using ADVIA 120 (Siemens Healthcare Diagnostics), and the ratio was multiplied by the total white blood cell count to determine the eosinophil count in BALF. The inhibition rate of the test compound was determined, assuming the inhibitory ratio in the treatment with Aspergillus fumigatus extract and 0.5% methylcellulose as 0% and the inhibitory ratio in the treatment without Aspergillus fumigatus extract but with 0.5% methylcellulose as 100%.

T1 sequence (P23458 whole entry): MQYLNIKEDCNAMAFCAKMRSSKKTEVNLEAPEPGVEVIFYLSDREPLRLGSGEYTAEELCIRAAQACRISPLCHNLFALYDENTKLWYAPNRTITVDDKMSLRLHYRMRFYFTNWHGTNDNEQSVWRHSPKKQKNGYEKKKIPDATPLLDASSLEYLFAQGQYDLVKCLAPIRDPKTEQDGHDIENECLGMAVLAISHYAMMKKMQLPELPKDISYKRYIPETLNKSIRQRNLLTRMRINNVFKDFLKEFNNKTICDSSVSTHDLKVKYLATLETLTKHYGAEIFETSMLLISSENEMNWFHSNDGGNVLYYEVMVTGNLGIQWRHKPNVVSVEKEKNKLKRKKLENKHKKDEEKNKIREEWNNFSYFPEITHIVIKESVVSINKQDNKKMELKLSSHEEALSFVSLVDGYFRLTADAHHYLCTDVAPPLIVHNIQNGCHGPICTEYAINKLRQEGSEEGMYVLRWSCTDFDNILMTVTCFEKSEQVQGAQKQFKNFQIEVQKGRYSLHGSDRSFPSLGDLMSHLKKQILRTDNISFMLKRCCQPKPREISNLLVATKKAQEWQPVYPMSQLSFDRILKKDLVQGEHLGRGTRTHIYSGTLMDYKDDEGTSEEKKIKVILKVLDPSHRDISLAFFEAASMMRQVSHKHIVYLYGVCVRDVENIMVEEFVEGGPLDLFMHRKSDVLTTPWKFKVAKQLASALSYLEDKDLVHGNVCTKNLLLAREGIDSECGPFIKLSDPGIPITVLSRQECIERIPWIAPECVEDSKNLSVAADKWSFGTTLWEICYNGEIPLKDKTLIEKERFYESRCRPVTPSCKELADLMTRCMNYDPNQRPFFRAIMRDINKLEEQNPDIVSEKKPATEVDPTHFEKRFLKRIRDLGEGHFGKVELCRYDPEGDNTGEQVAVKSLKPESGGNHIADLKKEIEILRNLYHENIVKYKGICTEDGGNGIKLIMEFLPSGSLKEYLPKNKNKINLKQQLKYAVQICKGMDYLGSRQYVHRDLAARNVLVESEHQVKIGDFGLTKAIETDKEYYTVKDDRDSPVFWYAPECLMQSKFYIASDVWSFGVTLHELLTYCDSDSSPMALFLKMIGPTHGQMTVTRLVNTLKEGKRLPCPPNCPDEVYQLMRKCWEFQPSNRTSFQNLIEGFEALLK
T2 sequence (O60674 whole entry): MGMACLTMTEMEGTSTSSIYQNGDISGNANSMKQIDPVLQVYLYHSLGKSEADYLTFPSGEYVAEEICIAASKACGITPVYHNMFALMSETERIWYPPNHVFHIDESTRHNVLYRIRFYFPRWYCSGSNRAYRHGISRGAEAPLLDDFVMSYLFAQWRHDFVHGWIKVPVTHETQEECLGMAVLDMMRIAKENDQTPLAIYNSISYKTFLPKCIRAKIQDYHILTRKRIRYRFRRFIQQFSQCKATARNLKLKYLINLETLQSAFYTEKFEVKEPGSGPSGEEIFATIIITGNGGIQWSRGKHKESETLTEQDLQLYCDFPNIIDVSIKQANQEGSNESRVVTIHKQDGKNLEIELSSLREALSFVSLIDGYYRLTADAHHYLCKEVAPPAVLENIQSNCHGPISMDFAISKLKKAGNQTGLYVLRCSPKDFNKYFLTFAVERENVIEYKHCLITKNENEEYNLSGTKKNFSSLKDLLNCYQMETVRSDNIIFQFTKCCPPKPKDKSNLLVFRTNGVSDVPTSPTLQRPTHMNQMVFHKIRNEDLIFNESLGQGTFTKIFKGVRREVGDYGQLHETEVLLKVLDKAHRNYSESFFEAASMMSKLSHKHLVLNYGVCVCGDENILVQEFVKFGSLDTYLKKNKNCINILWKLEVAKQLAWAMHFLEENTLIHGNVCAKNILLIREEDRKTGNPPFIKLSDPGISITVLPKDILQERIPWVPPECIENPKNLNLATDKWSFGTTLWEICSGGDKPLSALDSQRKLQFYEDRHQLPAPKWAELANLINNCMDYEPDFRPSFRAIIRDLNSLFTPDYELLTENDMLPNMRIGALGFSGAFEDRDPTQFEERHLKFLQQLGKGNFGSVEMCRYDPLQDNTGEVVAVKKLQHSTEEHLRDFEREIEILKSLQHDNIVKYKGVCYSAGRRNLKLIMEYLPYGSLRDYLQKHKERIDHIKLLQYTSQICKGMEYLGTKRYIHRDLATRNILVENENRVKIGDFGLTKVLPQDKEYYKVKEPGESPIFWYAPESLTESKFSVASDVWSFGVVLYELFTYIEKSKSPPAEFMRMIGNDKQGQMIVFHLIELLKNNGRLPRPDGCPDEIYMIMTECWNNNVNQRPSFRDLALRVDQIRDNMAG

Compound	IC50 (JAK1) [nM]	IC50 (JAK2) [nM]	IC50 (JAK3) [nM]	inhibition in vivo at 10000 µg/mL, 100 mg/kg [1] [%]	Inhibition rate on count of invasive eosinophil in BALF (%) ([1]; oral, 10 mg/mL suspension at 10 mL/kg twice a day Day 0 to Day 9, BALF collected at Day 10)
C[C@H](Nc1cc(C(=O)N2CCC(NC(=O)C3CC3)CC2)nc(-c2cnn3ccsc23)n1)C1CC1 [Example 1, N-(1-{[6-{[(1S)-1-Cyclopropylethyl]amino}-2-(pyrazolo[5,1-b][1,3]thiazol-7-yl)pyrimidin-4-yl]carbonyl}piperidin-4-yl)cyclopropanecarboxamide hydrochloride]	52	3400	3400	43	–
C[C@@H](Nc1cc(C(=O)N2CCC(NC(=O)C3CC3)CC2)nc(-c2cnn3ccsc23)n1)C(C)(C)C [Example 16, N-(1-{[6-{[(2R)-3,3-Dimethylbutan-2-yl]amino}-2-(pyrazolo[5,1-b][1,3]thiazol-7-yl)pyrimidin-4-yl]carbonyl}piperidin-4-yl)cyclopropanecarboxamide]	53	2200	2200	33	–
C[C@H](Nc1cc(C(=O)N2CCC(O)CC2)nc(-c2cnn3ccsc23)n1)C1CC1 [Example 20, [6-{[(1S)-1-Cyclopropylethyl]amino}-2-(pyrazolo[5,1-b][1,3]thiazol-7-yl)pyrimidin-4-yl](4-hydroxypiperidin-1-yl)methanone hydrochloride]	1400	4700	4200	61	–
C[C@H](Nc1cc(C(=O)N2CCC(NC(=O)OC(C)(C)CF)CC2)nc(-c2cnn3ccsc23)n1)C1CC1 [Example 21, 1-Fluoro-2-methylpropan-2-yl (1-{[6-{[(1S)-1-cyclopropylethyl]amino}-2-(pyrazolo[5,1-b][1,3]thiazol-7-yl)pyrimidin-4-yl]carbonyl}piperidin-4-yl)carbamate hydrochloride]	230	2200	> 10000	47	–
COC(=O)NC1CCN(C(=O)c2cc(N[C@@H](C)C(C)(C)C)nc(-c3cnn4ccsc34)n2)CC1 [Example 22, Methyl (1-{[6-{[(2S)-3,3-dimethylbutan-2-yl]amino}-2-(pyrazolo[5,1-b][1,3]thiazol-7-yl)pyrimidin-4 yl]carbonyl}piperidin-4-yl)carbamate]	130	800	3700	57	–
C[C@H](Nc1cc(C(=O)N2CCC(O)CC2)nc(-c2cnn3ccsc23)n1)C(C)(C)C [Example 23, [6-{[(2S)-3,3-Dimethylbutan-2-yl]amino}-2-(pyrazolo[5,1-b][1,3]thiazol-7-yl)pyrimidin-4-yl](4-hydroxypiperidin-1-yl)methanone]	860	870	3300	31	–
COC(=O)NC1CCN(C(=O)c2cc(N[C@H](C)C(C)C)nc(-c3cnn4ccsc34)n2)CC1 [Example 24, Methyl (1-{[6-{[(2R)-3-methylbutan-2-yl]amino}-2-(pyrazolo[5,1-b][1,3]thiazol-7-yl)pyrimidin-4-yl]carbonyl}piperidin-4-yl)carbamate hydrochloride]	290	1500	4200	35	–
COC(=O)NC1CCN(C(=O)c2cc(N[C@@H](C)C(C)C)nc(-c3cnn4ccsc34)n2)CC1 [Example 25, Methyl (l-{[6-{[(2S)-3-methylbutan-2-yl]amino}-2-(pyrazolo[5,1-b][1,3]thiazol-7-yl)pyrimidin-4-yl]carbonyl}piperidin-4-yl)carbamate hydrochloride]	200	800	2000	30	–
COC(=O)NC1CCN(C(=O)c2cc(N[C@@H](C)C3CC3)nc(-c3cnn4ccsc34)n2)CC1 [Example 26, Methyl (1-{[6-{[(1S)-1-cycloproropylethyl]amino}-2-(pyrazolo[5,1-b][1,3]thiazol-7-yl)pyrimidin-4-yl]carbonyl}piperidin-4-yl)carbamate]	75	2100	2100	58	–
COC(=O)NC1CCN(C(=O)c2cc(N[C@@H](C)C3CC3)nc(-c3cnn4ccsc34)n2)CC1.Cl [Example 27, Methyl (1-{[6-{[(1S)-1-cyclopropylethyl]amino}-2-(pyrazolo[5,1-b][1,3]thiazol-7-yl)pyrimidin-4-yl]carbonyl}piperidin-4-yl)carbamate hydrochloride]	140	2500	4300	–	62
CCOC(=O)NC1CCN(C(=O)c2cc(N[C@@H](C)C3CC3)nc(-c3cnn4ccsc34)n2)CC1 [Example 28, Ethyl (1-{[6-{[(1S)-1-cyclopropylethyl]amino}-2-(pyrazolo[5,1-b][1,3]thiazol-7-yl)pyrimidin-4-yl]carbonyl}piperidin-4-yl)carbamate]	120	2100	> 10000	52	–
C[C@@H](C1CC1)N(C)c1cc(C(=O)N2CCC(NC(=O)C3CC3)CC2)nc(-c2cnn3ccsc23)n1 [Example 33, N-(1-{[6-{[(1S)-1-Cyclopropylethyl](methyl)amino}-2-(pyrazolo[5,1-b][1,3]thiazol-7-yl)pyrimidin-4-yl]carbonyl}piperidin-4-yl)cyclopropanecarboxamide hydrochloride]	130	1700	1700	37	–
CC(C)OC(=O)NC1CCN(C(=O)c2cc(N[C@@H](C)C3CC3)nc(-c3cnn4ccsc34)n2)CC1 [Example 41, Propan-2-yl (1-{[6-{[(1S)-1-cyclopropylethyl]amino}-2-(pyrazolo[5,1-b][1,3]thiazol-7-yl)pyrimidin-4-yl]carbonyl}piperidin-4-yl)carbamate]	96	2700	> 10000	51	–
CC(C)(C)Nc1cc(C(=O)N2CCC(O)CC2)nc(-c2cnn3ccsc23)n1 [Example 58, [6-(tert-Butylamino)-2-(pyrazolo[5,1-b][1,3]thiazol-7-yl)pyrimidin-4-yl](4-hydroxypiperidin-1-yl)methanone]	400	2900	> 10000	37	–
C[C@@H](Nc1cc(C(=O)N2CCC(O)CC2)nc(-c2cnn3ccsc23)n1)C(C)(C)C [Example 62, [6-{[(2R)-3,3-Dimethylbutan-2-yl]amino}-2-(pyrazolo[5,1-b][1,3]thiazol-7-yl)pyrimidin 4 yl](4-hydroxypiperidin-1-yl)methanone hydrochloride]	10	1000	1100	36	–
